# Source: US5506354A, “Imidazolylpiperazinyl steroids” (The Upjohn Company, priority 1992, dated 1996)
# Counter-ions that a name gives are not always drawn.
# Key:
# [1] = test system: mouse head injury; assay: in vivo mouse head injury procedure of Hall (1 hr neurological recovery, grip test); details: statistically significant (p<0.05)
# [2] = test system: MDA formation; assay: Malonyldialdehyde (MDA) Formation Assay (rat brain synaptosomes); format: biochemical; details: 10 min at 37°, pH 7.0; active = 50% or more at 200 μM or less
# Method: Since lipid peroxidation is involved in the pathophysiology of center nervous system trauma, compounds which inhibit MDA formation are useful in treating the conditions listed below.
# While not necessary to determine MDA formation, the above assays have been modified as follows: rat brain synaptosomes are prepared as described in the Example about the conjugated diene assay, except that the final wash of the synaptosomes and final suspension are in physiological (normal) saline in which the pH has been adjusted to 7.0. The synaptosomes are incubated for 10 min at 37° in physiological (normal) saline pH 7.0 (total volume=100 ul) containing; 10 ul synaptosomal suspension, 10% DMSO plus or minus drug, 150 uM Fe^+++ and 50 uM Fe++. The incubation is started by the rapid addition of iron to the otherwise complete reaction. The iron solutions are prepared fresh as ferric chloride and ferrous ammonium sulfate in argon-purged water. Following the 10 min incubation, the reaction is stopped by the addition of 500 ul ice-cold 12% trichloroacetic acid prepared in 0.5N hydrochloric acid. Water (300 ul) is then added along with 100 ul of freshly prepared thiobarbituric acid (3.3% in 0.5N sodium hydroxide) and 10 ul of 5 mM desferrioxamine. The sample is then heated in a boiling water bath for 20 minutes. The samples are cooled and centrifuged for 15 minutes at 1500×g and the absorbence of the supernatant fraction is read at 532 nm. The % inhibition of MDA formation is calculated by dividing the absorbance of sample containing drug by the absorbence of samples incubated without drug. Reaction blanks are samples incubated in the absence of iron. A compound that inhibits MDA formation by 50% or more at a concentration of 200 μM or less is considered "active".
# [3] = test system: arachidonic acid; assay: Arachidonic Acid Antagonism Assay (AAAA), LD50 of sodium arachidonate; format: in vivo, Charles River male CF-1 mice; details: 100 mg/kg; test compound IV
# Summary of the method: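 Male CF-1 mice (18–22 g) received test compound IV in 1.0% Tween-80/0.1% HCl. LD50 was derived by Spearman-Karber (log dose interval 0.05, N=6), and activity was defined as LD50 elevation outside the control's 95% confidence interval.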
# [4] = test system: AcylCoA:Cholesterol Acyltransferase (ACAT); assay: AcylCoA:Cholesterol Acyltransferase (ACAT) Inhibition Assay; format: cell-based; design: key to inhibition of ACAT (activity in words): compounds which inhibit ACAT activity equal to, or greater than, that of chloropromazine are considered "active"; details: for inhibition of ACAT (activity in words): preferred Fu5AH cells, compared with chloropromazine
# From the text: ACAT esterifies arterial cholesterol which is a key reaction in the development of atherosclerosis. The procedure of Bell, Can. […] In the ACAT assay it is preferred to use Fu5AH cells, see Lipids 9, 526 (1974). According to this procedure, compounds which inhibit ACAT activity equal to, or greater than, that of chloropromazine are considered "active".
# [5] = test system: mucous secretion; assay: Inhibition of mucous secretion assay of Johnson; details: induced mucous secretions
# From the text: According to this procedure compounds which inhibit or block enhancement of induced mucous secretions when tested are considered to be "active".
# [6] = test system: serum and arterial cholesterol in quail fed an atherogenic diet; assay: Antiatherosclerosis Screen in Susceptible to Experimental Atherosclerosis (SEA) Japanese Quail; format: in vivo
# Method: While not necessary, some minor modifications for extraction of cholesterol from the artery have been made. Time are as follows: frozen arteries are homogenized in hexane/isopropanol (3/2) and the volume adjusted with Triton 100 solution (1.5% in hexane/isopropanol) to 7 ml. After standing 12 hr at 20°-25°, the supernatant, obtained by low speed centrifugation is evaporated until dry and thru the residue is suspended in 0.5 ml of 5% Triton 100 in isopropanol. This suspension is incubated for 10 min at 45° to dissolve the material. This solution as well as the diluted serum samples are analyzed for cholesterol by standard clinical chemistry analyzer methods. According to the above procedure compounds which decrease serum or arterial cholesterol >30% are considered to be "active".
SMILES,% Increase in 1 hr Post-Injury Grip Test Scores After 3 mg/kg [1],inhibition of ACAT (activity in words) [4],also measured
"CCN(CC)c1cc(N2CCN(CC(=O)[C@H]3CC[C@H]4[C@@H]5CCC6=CC(=O)CC[C@]6(C)[C@H]5[C@H](O)C[C@]34C)CC2)nc(N(CC)CC)n1.Cl.Cl [Example 69, 21-[4-[2,6-bis(diethylamino)-4-pyrimidinyl]-1-piperazinyl]-11α-hydroxypregn-4-ene-3,20-dione dihydrochloride]",199.7%,–,–
"CCN(CC)c1nc(N2CCCCC2)cc(N2CCN(CC(=O)[C@@]3(O)CC[C@H]4[C@@H]5CCC6=CC(=O)CC[C@]6(C)C5=CC[C@@]43C)CC2)n1.Cl.O [Example 17, 17α-Hydroxy-21-[4-[2-(diethylamino)-6-(1-piperidinyl)-4-pyrimidinyl]-1-piperazinyl]pregna-4,9(11)-diene-3,20-dione hydrochloride hydrate]",–,active,inhibition of MDA formation (activity in words) [2]: demonstrate such activity; % of Control LD50 100 mg/kg [3]: 150%; % Inhibition of ACAT ([4]; 5 μg/ml): 32.2%
"CCNc1cccnc1N1CCN(CC(=O)[C@H]2[C@H](C)C[C@H]3[C@@H]4CCC5=CC(=O)C=C[C@]5(C)C4=CC[C@@]32C)CC1 [Example 127, 21-[4-[3-(Ethylamino)-2-pyridinyl]piperazinyl]-16α-methylpregna-1,4,9(11)-triene-3,20-dione hydrochloride]",200.8%,–,–
"CCN(CC)c1cc(N2CCN(CC(=O)[C@@]3(O)[C@H](C)C[C@H]4[C@@H]5CCC6=CC(=O)C=C[C@]6(C)C5=CC[C@@]43C)CC2)nc(N(CC)CC)n1.Cl.O [Example 18, 21-[4-[2,6-Bis(diethylamino)-4-pyrimidinyl]-1-piperazinyl]-17α-hydroxy-16α-methylpregna-1,4,9(11)-triene-3,20-dione hydrochloride hydrate]",–,active,inhibition of mucous secretion (activity in words) [5]: demonstrate such activity
"CS(=O)(=O)O.C[C@@H]1C[C@H]2[C@@H]3CCC4=CC(=O)C=C[C@]4(C)C3=CC[C@]2(C)[C@H]1C(=O)CN1CCN(c2cc(N3CCCC3)nc(N3CCCC3)n2)CC1.O [Example 109, 16α-Methyl-21-[4-[2,6-bis(1-pyrrolidinyl)-4-pyrimidinyl]-1-piperazinyl]-pregna-1,4,9(11)-triene-3,20-dione-monomethanesulfonate monohydrate]",184.4%,–,–
"C[C@]12CCC(=O)C=C1CC[C@@H]1C2=CC[C@@]2(C)[C@H]1CC[C@]2(O)C(=O)CN1CCN(c2ccccn2)CC1.Cl [Example 3, 17α-Hydroxy-21-[4-(2-pyridinyl)-1-piperazinyl]pregna-4,9(11)-diene-3,20-dione hydrogen chloride salt]",–,active,reduction of arterial cholesterol (in words) ([6]; artery): demonstrates reduction of serum and arterial cholesterol; reduction of serum cholesterol (in words) ([6]; serum): demonstrates reduction of serum and arterial cholesterol
"CCN(CC)c1cc(N2CCN(CC(=O)[C@@]3(O)CC[C@H]4[C@@H]5CCC6=CC(=O)CC[C@]6(C)[C@H]5[C@H](O)C[C@@]43C)CC2)nc(N(CC)CC)n1.Cl.Cl [Example 70, 21-[4-[2,6-bis(diethylamino)4-pyrimidinyl]-1-piperazinyl]-11α,17α-dihydroxypregn-4-ene-3,20-dione dihydrochloride]",148.3%,–,–
